Earlier results in patent US11911501B1, “Biocompatible resin composition and method of manufacturing dissolvable microneedles for transdermal delivery using biocompatible resin” (Florida A&M University, priority 2020, dated 2024).

Tested on: clonal SV 40 large T-antigen transfected human pulp-derived cells (tHPC)
Details: reference [1]

**Q.** With `Cc1cc(C)c(C(=O)P(=O)(c2ccccc2)c2ccccc2)c(C)c1` [TPO, diphenyl(2,4,6-trimethylbenzoyl)phosphine oxide] as the compound, how does the toxicity read?
**A.** cause toxicity
